Reference: patent US20240150377A1, “MODULATORS OF CYSTIC FIBROSIS TRANSMEMBRANE CONDUCTANCE REGULATOR” (VERTEX PHARMACEUTICALS INCORPORATED, priority 2020, published 2024)
Like-named read-outs stand apart in the source and are kept apart here. One block for each compound: values may come before it.

What was measured:
CFTR [1] = target: T1, CFTR (Homo sapiens, UniProt P13569); assay: Membrane potential dye, Enteroid Assay B; type: cell-based; conditions: for Ent. B Max Activity: chloride transport as % of triple combination control (Enteroid Assay B); for EC50: read-out: Ent. B EC50
Method in brief: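 Human intestinal enteroids were treated with compound in maintenance medium for 18-24 h at 37° C, then loaded with methyl oxonol membrane-potential dye (25 min, room temperature). Chloride transport was triggered in chloride-free buffer with 10 μM forskolin, 100 μM IBMX and 300 nM Compound III, fluorescence read 15 min; expressed as % of triple-combination control.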

[2] = amide bond, 13-membered ring
CFTR [3] = target: T1, CFTR; assay: Membrane potential dye, Enteroid Assay A; type: cell-based; conditions: for Ent. A Max Activity: chloride transport as % of triple combination control (Enteroid Assay A); for EC50: human enteroid cells, 18-24 hours, acute 10 μM forskolin and 300 nM ivacaftor, read-out: Ent. A EC50
Method in brief: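 Human intestinal enteroids incubated 18-24 h at 37 °C with test compound, then loaded with 20 μM methyl oxonol (with CaCC inhibitors). Chloride transport triggered in chloride-free buffer with 10 μM forskolin, 100 μM IBMX, 300 nM Compound III; fluorescence read 15 min, expressed as % of a triple-combination corrector/potentiator control.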

F508del = target: T2, F508del (Homo sapiens, UniProt P13569, DEL508-508); assay: 3T3 assay: membrane potential optical assay for F508del correction; type: cell-based; conditions: Table 6, F508del NIH 3T3 cells; for Emax: NIH3T3, compared to lumacaftor in combination with acutely added 300 nM Ivacaftor, read-out: 3T3 Max Activity; for EC50: 18-24 hours at 37° C., forskolin, acutely added 300 nM Ivacaftor
T2 construct: expressed in transfected cells
Excerpt: 1. Membrane Potential Optical Methods for Assaying F508del Modulation Properties of Compounds
The assay utilizes fluorescent voltage sensing dyes to measure changes in membrane potential using a fluorescent plate reader (e.g., FLIPR III, Molecular Devices, Inc.) as a readout for increase in functional F508del in NIH 3T3 cells. The driving force for the response is the creation of a chloride ion gradient in conjunction with channel activation by a single liquid addition step after the cells have previously been treated with compounds and subsequently loaded with a voltage sensing dye.
2. Identification of Corrector Compounds
To identify correctors of F508del, a single-addition HTS assay format was developed. This HTS assay utilizes fluorescent voltage sensing dyes to measure changes in membrane potential on the FLIPR III as a measurement for increase in gating (conductance) of F508del in F508del NIH 3T3 cells. The F508del NIH 3T3 cell cultures were incubated with the corrector compounds at a range of concentrations for 18-24 hours at 37° C., and subsequently loaded with a redistribution dye. The driving force for the response is a Cl^− ion gradient in conjunction with channel activation with forskolin in a single liquid addition step using a fluorescent plate reader such as FLIPR III.
Bath Solution #1: (in mM) NaCl 160, KCl 4.5, CaCl2) 2, MgCl2 1, HEPES 10, pH 7.4 with NaOH.
Chloride-free bath solution: Chloride salts in Bath Solution #1 (above) are substituted with gluconate salts.
NIH3T3 mouse fibroblasts stably expressing F508del are used for optical measurements of membrane potential. The cells are maintained at 37° C. in 5% CO2 and 90% humidity in Dulbecco's modified Eagle's medium supplemented with 2 mM glutamine, 10% fetal bovine serum, 1× NEAA, b-ME, 1×pen/strep, and 25 mM HEPES in 175 cm^2 culture flasks. For all optical assays, the cells were seeded at ˜20,000/well in 384-well Matrigel-coated plates. For the correction assays, the cells are cultured at 37° C. with and without compounds for 16-24 hours.

[4] = Table 8, human enteroid cells, 18-24 hours, acute 10 μM forskolin and 300 nM ivacaftor

T1 sequence (P13569 with tags, fused parts or gaps DEL508-508): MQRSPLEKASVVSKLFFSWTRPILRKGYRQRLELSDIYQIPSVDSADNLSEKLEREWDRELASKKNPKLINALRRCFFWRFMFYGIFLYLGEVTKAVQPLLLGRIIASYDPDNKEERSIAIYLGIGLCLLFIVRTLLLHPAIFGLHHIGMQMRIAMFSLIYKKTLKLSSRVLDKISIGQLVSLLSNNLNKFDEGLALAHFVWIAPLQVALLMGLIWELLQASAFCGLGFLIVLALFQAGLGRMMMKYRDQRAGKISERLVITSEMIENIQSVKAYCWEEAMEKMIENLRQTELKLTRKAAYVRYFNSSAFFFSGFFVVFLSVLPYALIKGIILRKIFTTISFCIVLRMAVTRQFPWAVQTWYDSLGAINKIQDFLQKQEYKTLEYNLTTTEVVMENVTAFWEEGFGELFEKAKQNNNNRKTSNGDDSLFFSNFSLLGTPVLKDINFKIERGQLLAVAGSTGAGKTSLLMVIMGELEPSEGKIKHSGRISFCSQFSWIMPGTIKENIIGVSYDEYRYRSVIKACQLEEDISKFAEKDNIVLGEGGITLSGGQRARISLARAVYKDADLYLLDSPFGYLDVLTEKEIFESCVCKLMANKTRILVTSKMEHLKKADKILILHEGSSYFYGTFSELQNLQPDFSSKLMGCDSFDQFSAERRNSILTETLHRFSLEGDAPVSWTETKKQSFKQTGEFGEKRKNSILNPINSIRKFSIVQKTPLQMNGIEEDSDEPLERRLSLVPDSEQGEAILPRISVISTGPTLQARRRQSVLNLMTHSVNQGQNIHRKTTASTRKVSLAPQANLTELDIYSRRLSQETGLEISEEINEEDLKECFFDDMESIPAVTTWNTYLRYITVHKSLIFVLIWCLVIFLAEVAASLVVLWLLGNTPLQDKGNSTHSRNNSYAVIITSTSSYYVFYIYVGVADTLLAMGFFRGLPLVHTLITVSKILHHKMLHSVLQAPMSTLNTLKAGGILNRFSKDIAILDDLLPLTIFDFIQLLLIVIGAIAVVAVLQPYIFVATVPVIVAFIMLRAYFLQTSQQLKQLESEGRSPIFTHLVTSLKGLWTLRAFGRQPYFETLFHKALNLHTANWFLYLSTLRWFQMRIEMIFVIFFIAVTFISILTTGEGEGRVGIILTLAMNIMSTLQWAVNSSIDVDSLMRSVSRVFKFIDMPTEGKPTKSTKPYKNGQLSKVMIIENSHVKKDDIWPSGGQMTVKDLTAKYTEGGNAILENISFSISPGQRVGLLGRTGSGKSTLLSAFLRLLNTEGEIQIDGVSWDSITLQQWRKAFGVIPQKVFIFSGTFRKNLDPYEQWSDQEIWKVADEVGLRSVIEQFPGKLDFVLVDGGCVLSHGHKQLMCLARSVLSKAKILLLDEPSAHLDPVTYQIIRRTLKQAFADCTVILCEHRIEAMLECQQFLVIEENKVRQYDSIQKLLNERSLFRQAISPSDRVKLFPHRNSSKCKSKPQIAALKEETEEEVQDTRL
T2 sequence (P13569 with tags, fused parts or gaps DEL508-508): as above

SMILES: Cc1cccc(C)c1-c1cc2nc(n1)NS(=O)(=O)c1cccc(c1)C(=O)N(Cc1ccc(N3CCOCC3)cn1)[C@H](CC(C)(C)C)CO2 [Compound 48, (11R)-6-(2,6-Dimethylphenyl)-11-(2,2-dimethylpropyl)-12-[(5-morpholino-2-pyridyl)methyl]-2,2-dioxo-9-oxa-2λ^6-thia-3,5,12,19-tetrazatricyclo[12.3.1.14,8]nonadeca-1(18),4(19),5,7,14,16-hexaen-13-one]
- Ent. B Max Activity (%) (CFTR [1]; Table 9): +++ (+++ is >600%)
- EC50 (CFTR [1]; Table 9): < 1000 nM
- ring closure, yield after HPLC ([2]; from Cc1cccc(C)c1-c1cc(OC[C@@H](CC(C)(C)C)NCc2ccc(N3CCOCC3)cn2)nc(NS(=O)(=O)c2cccc(C(=O)O)c2)n1, CDMT/NMM, DMF, 16.9 mM, 25.0 °C, 2.33 h, 2 steps): 22%

SMILES: Cc1cccc(C)c1-c1cc2nc(n1)NS(=O)(=O)c1cccc(n1)C(=O)N(Cc1ncccn1)[C@H](CC(C)(C)C)CO2 [Compound 75, (11R)-6-(2,6-dimethylphenyl)-11-(2,2-dimethylpropyl)-12-[(pyrimidin-2-yl)methyl]-9-oxa-2λ^6-thia-3,5,12,18,19-pentaazatricyclo[12.3.1.14,8]nonadeca-1(18),4(19),5,7,14,16-hexaene-2,2,13-trione]
- Ent. B Max Activity (CFTR [1]; Table 8): +++ (+++ is >60%)
- EC50 (CFTR [1]; [4]): < 1000 nM
- ring closure, yield after HPLC ([2]; from Cc1cccc(C)c1-c1cc(OC[C@@H](CC(C)(C)C)NCc2ncccn2)nc(NS(=O)(=O)c2cccc(C(=O)O)n2)n1, HATU/DIEA, DMF, 30.5 mM, 25.0 °C, 0.5 h): 46%

SMILES: Cc1cccc(C)c1-c1cc2nc(n1)NS(=O)(=O)c1cccc(c1)C(=O)N(C)[C@H](CC(C)C)[C@H](CC(C)C)O2 [Compound 2, (10S,11R)-6-(2,6-Dimethylphenyl)-12-methyl-10,11-bis(2-methylpropyl)-9-oxa-2λ^6-thia-3,5,12,19-tetraazatricyclo[12.3.1.14,8]nonadeca-1(18),4(19),5,7,14,16-hexaene-2,2,13-trione]
- Ent. A Max Activity (CFTR [3]; Table 6): +++ (+++ is >60%)
- EC50 (CFTR [3]; Table 6): < 1000 nM
- Emax (F508del): > 60%
- EC50 (F508del): < 1000 nM
- ring closure, yield after HPLC ([2]; from CN[C@H](CC(C)C)[C@H](CC(C)C)Oc1cc(-c2c(C)cccc2C)nc(NS(=O)(=O)c2cccc(C(=O)O)c2)n1, HATU/TEA, DMF, 18.8 mM, 15.0 h): 47%

SMILES: COCCCCN1C(=O)c2cccc(c2)S(=O)(=O)Nc2nc(cc(-c3c(C)cccc3C)n2)OC[C@H]1CC(C)C [Compound 84, (11R)-6-(2,6-dimethylphenyl)-11-isobutyl-12-(4-methoxybutyl)-2,2-dioxo-9-oxa-2λ^6-thia-3,5,12,19-tetrazatricyclo[12.3.1.14,8]nonadeca-1(18),4(19),5,7,14,16-hexaen-13-one]
- Ent. A Max Activity (CFTR [3]; Table 7): +++ (+++ is >60%)
- EC50 (CFTR [3]; Table 7): < 1000 nM
- Ent. B Max Activity (CFTR [1]; Table 7): +++ (+++ is >60%)
- EC50 (CFTR [1]; Table 7, human enteroid cells, 18-24 hours, acute 10 μM forskolin and 300 nM ivacaftor): < 1000 nM
- ring closure, yield after HPLC ([2]; from COCCCCN[C@@H](COc1cc(-c2c(C)cccc2C)nc(NS(=O)(=O)c2cccc(C(=O)O)c2)n1)CC(C)C, NaOtBu then HATU, THF, 98.4 mM, 25.0 °C, 1.0 h, 2 steps): 9%

SMILES: Cc1cccc(C)c1-c1cc2nc(n1)NS(=O)(=O)c1cccc(c1)C(=O)N(CC1CC3(CCOCC3)C1)[C@H](CC(C)C)CO2 [Compound 40, (11R)-6-(2,6-Dimethylphenyl)-11-isobutyl-12-(7-oxaspiro[3.5]nonan-2-ylmethyl)-2,2-dioxo-9-oxa-2λ^6-thia-3,5,12,19-tetrazatricyclo[12.3.1.14,8]nonadeca-1(18),4(19),5,7,14,16-hexaen-13-one]
- Ent. A Max Activity (CFTR [3]; Table 6): +++ (+++ is >60%)
- EC50 (CFTR [3]; Table 6): < 1000 nM
- Emax (F508del): > 60%
- EC50 (F508del): < 1000 nM
- ring closure, yield after HPLC ([2]; from Cc1cccc(C)c1-c1cc(OC[C@@H](CC(C)C)NCC2CC3(CCOCC3)C2)nc(NS(=O)(=O)c2cccc(C(=O)O)c2)n1, HATU/DIEA, DMF, 18.8 mM, 1.0 h): 63%

SMILES: Cc1cccc(C)c1-c1cc2nc(n1)NS(=O)(=O)c1cccc(c1)C(=O)N(C)CC(c1cccc(C(C)(C)C)c1)O2 (racemic) [Compound 16, 10-(3-tert-butylphenyl)-6-(2,6-dimethylphenyl)-12-methyl-2,2-dioxo-9-oxa-2λ^6-thia-3,5,12,19-tetrazatricyclo[12.3.1.14,8]nonadeca-1(18),4(19),5,7,14,16-hexaen-13-one]
- Ent. A Max Activity (CFTR [3]; Table 7): ++ (++ is 30-60%)
- EC50 (CFTR [3]; Table 7): < 1000 nM
- ring closure, yield after HPLC ([2]; from CNCC(Oc1cc(-c2c(C)cccc2C)nc(NS(=O)(=O)c2cccc(C(=O)O)c2)n1)c1cccc(C(C)(C)C)c1, HATU/DIEA, DMF, 32.6 mM, 25.0 °C, 1.0 h, 2 steps): 51%

Further lines, with some results ahead:

- Ent. B Max Activity (CFTR [1]; Table 8): +++ (+++ is >60%)
- EC50 (CFTR [1]; [4]): < 1000 nM
SMILES: Cc1cccc(C)c1-c1cc2nc(n1)NS(=O)(=O)c1cccc(c1)C(=O)N(Cc1cccnn1)[C@H](CC(C)(C)C)CO2 [Compound 135, (11R)-6-(2,6-dimethylphenyl)-11-(2,2-dimethylpropyl)-12-[(pyridazin-3-yl)methyl]-9-oxa-2λ^6-thia-3,5,12,19-tetraazatricyclo[12.3.1.14,8]nonadeca-1(18),4,6,8(19),14,16-hexaene-2,2,13-trione]
- ring closure, yield after HPLC ([2]; from Cc1cccc(C)c1-c1cc(OC[C@@H](CC(C)(C)C)NCc2cccnn2)nc(NS(=O)(=O)c2cccc(C(=O)O)c2)n1, COMU/DIEA, DMF, 40.7 mM, 16.0 h): 22%

- Ent. B Max Activity (CFTR [1]; Table 8): +++ (+++ is >60%)
- EC50 (CFTR [1]; [4]): < 1000 nM
SMILES: Cc1cccc(C)c1-c1cc2nc(n1)NS(=O)(=O)c1cccc(c1)C(=O)N(Cc1cnc(N)nc1)[C@H](CC(C)(C)C)CO2 [Compound 136, (11R)-12-[(2-Aminopyrimidin-5-yl)methyl]-6-(2,6-dimethylphenyl)-11-(2,2-dimethylpropyl)-9-oxa-2λ^6-thia-3,5,12,19-tetraazatricyclo[12.3.1.14,8]nonadeca-1(18),4,6,8(19),14,16-hexaene-2,2,13-trione]
- ring closure, yield after HPLC ([2]; from Cc1cccc(C)c1-c1cc(OC[C@@H](CC(C)(C)C)NCc2cnc(N)nc2)nc(NS(=O)(=O)c2cccc(C(=O)O)c2)n1, COMU/DIEA, DMF, 29.3 mM, 5.0 h): 33%

- Ent. B Max Activity (%) (CFTR [1]; Table 9): +++ (+++ is >600%)
- EC50 (CFTR [1]; Table 9): < 1000 nM
SMILES: COC(=O)c1ccc(CCN2C(=O)c3cccc(c3)S(=O)(=O)Nc3nc(cc(-c4c(C)cccc4C)n3)OC[C@H]2CC(C)(C)C)cc1 [Compound 1081]
- ring closure, yield after HPLC ([2]; from COC(=O)c1ccc(CCN[C@@H](COc2cc(-c3c(C)cccc3C)nc(NS(=O)(=O)c3cccc(C(=O)O)c3)n2)CC(C)(C)C)cc1, HATU/DIEA, DMF, 25.0 °C, 16.0 h, 2 steps): 23%

- Ent. B Max Activity (CFTR [1]; Table 8): +++ (+++ is >60%)
- EC50 (CFTR [1]; [4]): < 1000 nM
SMILES: Cc1cccc(C)c1-c1cc2nc(n1)NS(=O)(=O)c1cccc(c1)C(=O)N(Cc1ncccn1)[C@H](CC(C)(C)C)CO2 [Compound 113, (11R)-6-(2,6-Dimethylphenyl)-11-(2,2-dimethylpropyl)-12-[(pyrimidin-2-yl)methyl]-9-oxa-2λ^6-thia-3,5,12,19-tetraazatricyclo[12.3.1.14,8]nonadeca-1(17),4(19),5,7,14(18),15-hexaene-2,2,13-trione]
- ring closure, yield after HPLC ([2]; from Cc1cccc(C)c1-c1cc(OC[C@@H](CC(C)(C)C)NCc2ncccn2)nc(NS(=O)(=O)c2cccc(C(=O)O)c2)n1, COMU/DIEA, DMF, 28.1 mM, 25.0 °C, 6.0 h): 33%
